{"source": "patent US20240109942A1", "about": "“CHOLECYSTOKININ (CCK) SECRETION-PROMOTING PEPTIDE TARGETING CALCIUM-SENSING RECEPTOR, AND PREPARATION METHOD AND USE THEREOF” (University of Shanghai for Science and Technology, priority 2022, published 2024)", "test_system": "STC-1 cell", "assay": "MTT cell proliferation and cytotoxicity assay on STC-1 cell", "type": "cell-based", "conditions": "absorbance 570 nm, peptide 0, 1, 2, 4 mmol/L, FIG. 2", "method": "An STC-1 cell was cultured in a dulbecco's modified eagle medium (DMEM) containing 10% fetal bovine serum (FBS), 1% non-essential amino acids (NEAA), 100 U/mL penicillin and 0.1 mg/mL streptomycin. The cell was incubated in a cell incubator containing 5% CO2 at 37° C. and was subcultured by means of trypsin digestion when reaching 80%-90% density.\nThe effect of the active peptide of QGDVVALPA on the viability of the STC-1 cell was tested and evaluated by means of 3-(4,5-dimethylthiazol-2-yl)-2,5-diphenyltetrazolium bromide [3-(4,5-di methyl-2-thiazolyl)-2,5-di phenyl]-2H-tetrazolium bromide, methyl thiazolyl tetrazolium (MTT)) cell proliferation and cytotoxicity. MTT was added into the STC-1 cell treated in a 96-well plate, and a metabolically active cell cleaved yellow tetrazolium salt MTT into a purple formazan crystal. Formazan formed was dissolved, absorbance was measured with a microplate reader at a measurement wavelength of 570 nm, and results were expressed as a percentage of a control group.", "note": "Where no end group is shown, it is not given here."}
{"sequence": "QGDVVALPA [QGDVVALPA, Gln-Gly-Asp-Val-Val-Ala-Leu-Pro-Ala]", "values": [{"measurement": "viability of the STC-1 cell compared with the control group", "value": "not changed"}]}
